Active and inactive are the calls of the source.
Experiments:
[1] = target: T1, Photoreceptor-specific nuclear receptor (Homo sapiens, UniProt Q9Y5X4); test: ligands suppressing NR2E3 nuclear receptor activity – biochemical, TR-FRET, dose response (AID 463256); assay type: functional
[2] = target: T2, Peroxisome proliferator-activated receptor gamma/Nuclear receptor corepressor 2 (Homo sapiens, UniProt P37231+Q9Y618); test: Counterscreen for NR2E3 inverse agonists: TR-FRET-based biochemical high throughput dose response assay to identify inverse agonists of the interaction between peroxisome proliferator-activated receptor gamma (PPARg) and nuclear receptor co-repressor 2 (NCOR2).; assay type: functional
[3] = target: 5-hydroxytryptamine receptor 1A (Homo sapiens, UniProt P08908); assay type: functional
[4] = Cytotoxicity screening for potential Inhibitors of Bacterial Capsule Biogenesis. [Related pubchem assays (depositor defined):AID488970]; assay type: functional
[5] = luciferase reporter signal suppression in cells – H4 neuroglioma cells, luminescence, dose response (AID 1990); assay type: functional, cell-based
[6] = target: T1, Photoreceptor-specific nuclear receptor; assay type: functional
[7] = alpha-synuclein stem-loop luciferase translation blockers – H4 neuroglioma cells, luminescence, confirmation (AID 1988); assay type: functional, cell-based
Genome polyprotein [8] = target: Genome polyprotein (Hepatitis C virus, UniProt Q2Q167); test: disruption of hepatitis C core self-association – biochemical, TR-FRET, dose response (AID 2159); design: species or system Hepacivirus hominis;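 also: blocks dimerization of HCV core protein measured by TR-FRET between tagged core106 pairs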
Beta-lactamase [9] = target: Beta-lactamase (Pseudomonas aeruginosa, UniProt Q79MP6);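 also: biochemical dose-response test of metallo-beta-lactamase enzyme inhibition, read out by epi-absorbance; purified recombinant IMP-1 metallo-beta-lactamase with nitrocefin as substrate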
Beta-lactamase [10] = target: Beta-lactamase (Salmonella choleraesuis (strain SC-B67), UniProt Q5J463)
[11] = target: Histone-lysine N-methyltransferase NSD2 (Homo sapiens, UniProt O96028); assay type: biochemical
[12] = Luminescence Cell-Based Dose Response HTS to Identify Inhibitors of 5'UTR Stem-Loop Driven Prion Protein mRNA Translation in H4 Neuroglioblastoma Cells. [Related pubchem assays: 1827 (Project Summary), 1813 (Primary HTS)]; assay type: functional
[13] = target: T2, Peroxisome proliferator-activated receptor gamma/Nuclear receptor corepressor 2; assay type: functional
Danio rerio = test: In Vivo Angiogenesis Dose-Response Confirmation. [Related pubchem assays: 732 (Assay preceding this confirmatory assay.)]; assay type: functional, organism-based
14-3-3 protein gamma = 14-3-3 protein gamma (Homo sapiens, UniProt P61981); test: modulators of 14-3-3 gamma client binding – dose response (AID 711); assay type: functional
[14] = target: T3, Zinc finger protein mex-5 (Caenorhabditis elegans, UniProt Q9XUB2); test: potency of MEX-5 RNA-binding blockers – biochemical, C. elegans, fluorescence polarization, dose response (AID 1960)
T3 sequence (Q9XUB2 whole entry): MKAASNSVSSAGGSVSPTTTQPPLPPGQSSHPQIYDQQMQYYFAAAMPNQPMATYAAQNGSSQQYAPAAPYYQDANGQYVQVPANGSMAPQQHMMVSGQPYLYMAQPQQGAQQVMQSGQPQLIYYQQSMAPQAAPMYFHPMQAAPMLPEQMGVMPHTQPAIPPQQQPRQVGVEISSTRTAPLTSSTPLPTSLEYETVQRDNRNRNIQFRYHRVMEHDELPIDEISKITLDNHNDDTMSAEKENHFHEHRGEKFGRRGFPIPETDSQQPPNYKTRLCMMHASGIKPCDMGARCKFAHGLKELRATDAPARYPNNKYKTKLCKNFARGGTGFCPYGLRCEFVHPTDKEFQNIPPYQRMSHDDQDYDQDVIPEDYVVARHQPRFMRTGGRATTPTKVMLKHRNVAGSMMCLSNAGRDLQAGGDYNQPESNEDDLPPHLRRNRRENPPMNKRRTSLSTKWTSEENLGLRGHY

Bcl-2-like protein 10 = target: T4, Bcl-2-like protein 10 (Homo sapiens, UniProt Q9HD36); test: Bcl-B/TR3 peptide binding disruption – biochemical, fluorescence polarization, FITC-TR3 peptide, selectivity assay for Bfl-1 inhibitor project, primary screen (AID 748);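 also: fluorescence polarization from a fluorescein-labelled TR3 peptide binding purified Bcl-B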
T4 sequence (Q9HD36 whole entry): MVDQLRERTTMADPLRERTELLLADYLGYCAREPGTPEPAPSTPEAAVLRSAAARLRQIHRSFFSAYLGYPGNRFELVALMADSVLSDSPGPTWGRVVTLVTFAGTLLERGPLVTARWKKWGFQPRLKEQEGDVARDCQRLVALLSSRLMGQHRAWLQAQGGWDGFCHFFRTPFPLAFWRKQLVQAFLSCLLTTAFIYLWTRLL

Protein RecA = target: T5, Protein RecA (Mycobacterium tuberculosis, UniProt P9WHJ3); test: Fluorescence Cell-Free Homogeneous Dose Retest to Identify Inhibitors of RecA-Intein Splicing Activity. [Related pubchem assays (depositor defined):AID2097, AID2223, AID489010, AID492950]; assay type: functional
T5 sequence (P9WHJ3 whole entry): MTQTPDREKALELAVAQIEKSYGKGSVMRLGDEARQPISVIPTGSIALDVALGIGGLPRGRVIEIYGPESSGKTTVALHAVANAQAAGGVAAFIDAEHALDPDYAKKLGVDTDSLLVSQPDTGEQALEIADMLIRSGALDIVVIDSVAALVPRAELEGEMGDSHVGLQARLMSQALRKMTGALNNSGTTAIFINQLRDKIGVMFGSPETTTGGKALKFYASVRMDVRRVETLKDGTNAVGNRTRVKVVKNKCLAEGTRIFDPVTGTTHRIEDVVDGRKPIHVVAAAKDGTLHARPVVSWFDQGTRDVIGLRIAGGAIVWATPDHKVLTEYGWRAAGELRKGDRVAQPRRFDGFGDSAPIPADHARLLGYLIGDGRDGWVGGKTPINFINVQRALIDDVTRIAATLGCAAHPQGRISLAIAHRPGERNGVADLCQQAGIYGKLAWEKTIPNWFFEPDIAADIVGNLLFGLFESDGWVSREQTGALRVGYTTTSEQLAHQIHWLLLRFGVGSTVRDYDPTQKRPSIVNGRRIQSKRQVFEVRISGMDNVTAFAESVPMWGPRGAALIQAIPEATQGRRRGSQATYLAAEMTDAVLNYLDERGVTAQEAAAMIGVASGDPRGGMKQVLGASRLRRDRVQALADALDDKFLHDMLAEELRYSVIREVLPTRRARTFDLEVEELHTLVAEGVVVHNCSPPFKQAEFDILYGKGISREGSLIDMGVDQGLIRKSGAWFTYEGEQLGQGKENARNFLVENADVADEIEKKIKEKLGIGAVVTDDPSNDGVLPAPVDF

[15] = target: Tyrosyl-DNA phosphodiesterase 2 (Homo sapiens, UniProt O95551); test: potency against TDP2 phosphodiesterase activity – biochemical, epi absorbance, IC50, dose response (AID 743297)
[16] = IC50 of Artemis nuclease activity blockers – biochemical, fluorescence intensity, dose response (AID 720701); assay type: functional;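 also: Artemis endonuclease enzyme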
Fibrinogen beta chain [17] = target: T6, Fibrinogen beta chain (Homo sapiens, UniProt P02675); test: Fluorescence polarization-based biochemical high throughput dose response assay to identify inhibitors that disrupt the binding of a cyclic peptide (Tn7) to the fibrin proteolytic product D-Dimer and fragment E complex [DD(E )].
T6 sequence (P02675 whole entry): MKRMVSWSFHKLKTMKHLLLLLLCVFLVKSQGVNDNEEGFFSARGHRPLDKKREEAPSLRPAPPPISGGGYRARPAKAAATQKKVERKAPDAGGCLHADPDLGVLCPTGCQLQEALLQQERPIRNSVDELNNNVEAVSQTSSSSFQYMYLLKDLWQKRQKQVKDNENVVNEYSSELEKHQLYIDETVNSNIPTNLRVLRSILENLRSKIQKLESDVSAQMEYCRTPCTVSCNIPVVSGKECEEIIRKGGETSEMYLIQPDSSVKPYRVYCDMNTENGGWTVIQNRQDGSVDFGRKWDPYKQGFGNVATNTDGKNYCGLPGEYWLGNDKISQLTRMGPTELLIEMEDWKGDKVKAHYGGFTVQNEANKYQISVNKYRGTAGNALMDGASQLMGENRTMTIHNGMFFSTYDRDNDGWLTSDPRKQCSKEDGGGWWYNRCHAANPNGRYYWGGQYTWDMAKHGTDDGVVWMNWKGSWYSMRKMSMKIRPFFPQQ

Genome polyprotein [18] = target: Genome polyprotein (dengue virus type 2, UniProt P29990); test: flavivirus cap methylation enzyme inhibition – biochemical, confirmation dose response, primary screen (AID 588689); assay type: functional
[19] = target: T7, Replicative DNA helicase DnaB (Mycobacterium tuberculosis, UniProt P9WMR3); test: DnaB intein splicing inhibitors, dose response, biochemical, cell-free fluorescence (AID 449749); assay type: functional
T7 sequence (P9WMR3 whole entry): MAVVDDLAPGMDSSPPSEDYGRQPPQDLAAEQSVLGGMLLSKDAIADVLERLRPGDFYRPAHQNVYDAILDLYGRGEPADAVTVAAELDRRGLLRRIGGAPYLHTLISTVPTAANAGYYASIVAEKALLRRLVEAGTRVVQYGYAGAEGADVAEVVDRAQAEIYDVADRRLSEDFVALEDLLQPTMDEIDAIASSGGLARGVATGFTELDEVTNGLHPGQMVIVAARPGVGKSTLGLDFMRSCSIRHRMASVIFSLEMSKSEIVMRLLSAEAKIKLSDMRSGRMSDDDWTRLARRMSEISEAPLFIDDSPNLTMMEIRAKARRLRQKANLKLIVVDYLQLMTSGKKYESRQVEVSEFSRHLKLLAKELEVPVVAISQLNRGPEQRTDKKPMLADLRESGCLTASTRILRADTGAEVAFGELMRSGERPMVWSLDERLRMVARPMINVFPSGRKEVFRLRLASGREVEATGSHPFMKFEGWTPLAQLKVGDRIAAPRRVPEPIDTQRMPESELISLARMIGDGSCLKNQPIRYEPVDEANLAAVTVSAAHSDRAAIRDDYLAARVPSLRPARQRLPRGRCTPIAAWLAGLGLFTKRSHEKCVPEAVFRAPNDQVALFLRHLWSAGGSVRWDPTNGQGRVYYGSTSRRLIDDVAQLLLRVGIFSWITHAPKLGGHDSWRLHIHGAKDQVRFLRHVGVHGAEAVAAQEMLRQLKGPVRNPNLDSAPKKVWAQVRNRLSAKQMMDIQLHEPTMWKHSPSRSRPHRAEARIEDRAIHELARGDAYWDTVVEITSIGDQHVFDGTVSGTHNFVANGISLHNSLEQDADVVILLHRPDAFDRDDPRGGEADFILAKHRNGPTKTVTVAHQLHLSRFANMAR

[20] = target: T8, RNA-binding protein pos-1 (Caenorhabditis elegans, UniProt G5EF15); test: disruptors of C. elegans POS-1 RNA interaction – biochemical, fluorescence polarization, dose response (AID 1964);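 also: purified POS-1 fused to maltose binding protein made in E. coli; potency of compounds blocking POS-1 binding to fluorescent RNA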
T8 sequence (G5EF15 whole entry): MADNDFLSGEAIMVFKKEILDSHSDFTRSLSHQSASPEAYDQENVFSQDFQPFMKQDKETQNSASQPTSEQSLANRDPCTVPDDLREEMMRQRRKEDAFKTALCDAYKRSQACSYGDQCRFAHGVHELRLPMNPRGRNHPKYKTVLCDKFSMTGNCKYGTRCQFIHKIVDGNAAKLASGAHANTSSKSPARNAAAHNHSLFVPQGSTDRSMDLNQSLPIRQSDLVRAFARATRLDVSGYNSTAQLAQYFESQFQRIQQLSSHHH

Fibrinogen beta chain [21] = target: T6, Fibrinogen beta chain; test: Fluorescence polarization-based biochemical high throughput dose response assay to identify inhibitors that disrupt the binding of a cyclic peptide (Tn6) to the fibrin proteolytic product D-Dimer and fragment E complex [DD(E )].
Ephrin type-A receptor 4 = Ephrin type-A receptor 4 (Mus musculus, UniProt Q03137); test: EphA4 ligand-binding antagonists – biochemical, colorimetric, mouse EphA4, primary screen (AID 689); assay type: functional
Sequence of Ephrin type-A receptor 4 (Q03137 whole entry): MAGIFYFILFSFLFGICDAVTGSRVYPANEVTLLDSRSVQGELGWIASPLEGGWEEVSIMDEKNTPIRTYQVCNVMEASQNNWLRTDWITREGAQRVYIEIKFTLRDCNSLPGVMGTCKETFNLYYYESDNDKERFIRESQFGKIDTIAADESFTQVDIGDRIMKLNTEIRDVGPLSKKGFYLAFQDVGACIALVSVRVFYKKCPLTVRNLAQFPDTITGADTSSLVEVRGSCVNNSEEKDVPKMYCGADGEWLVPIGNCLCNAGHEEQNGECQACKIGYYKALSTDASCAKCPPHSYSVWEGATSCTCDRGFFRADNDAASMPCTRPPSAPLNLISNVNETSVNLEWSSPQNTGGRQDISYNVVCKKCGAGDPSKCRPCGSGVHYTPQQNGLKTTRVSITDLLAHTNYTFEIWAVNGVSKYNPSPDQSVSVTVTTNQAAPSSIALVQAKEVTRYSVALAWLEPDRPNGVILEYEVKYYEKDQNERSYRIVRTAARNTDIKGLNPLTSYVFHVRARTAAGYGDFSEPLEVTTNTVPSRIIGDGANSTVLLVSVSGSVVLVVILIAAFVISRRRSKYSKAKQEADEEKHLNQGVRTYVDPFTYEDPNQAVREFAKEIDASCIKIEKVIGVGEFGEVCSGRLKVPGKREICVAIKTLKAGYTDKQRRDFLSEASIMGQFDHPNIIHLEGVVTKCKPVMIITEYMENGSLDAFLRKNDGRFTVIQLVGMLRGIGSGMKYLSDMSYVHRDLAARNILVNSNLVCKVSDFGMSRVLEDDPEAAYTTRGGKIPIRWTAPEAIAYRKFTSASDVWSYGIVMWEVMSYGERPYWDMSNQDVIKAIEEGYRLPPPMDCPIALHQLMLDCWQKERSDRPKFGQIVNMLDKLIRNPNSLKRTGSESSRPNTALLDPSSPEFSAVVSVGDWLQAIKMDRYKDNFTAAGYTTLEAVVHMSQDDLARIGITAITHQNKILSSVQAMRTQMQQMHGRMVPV

T1 sequence (Q9Y5X4 whole entry): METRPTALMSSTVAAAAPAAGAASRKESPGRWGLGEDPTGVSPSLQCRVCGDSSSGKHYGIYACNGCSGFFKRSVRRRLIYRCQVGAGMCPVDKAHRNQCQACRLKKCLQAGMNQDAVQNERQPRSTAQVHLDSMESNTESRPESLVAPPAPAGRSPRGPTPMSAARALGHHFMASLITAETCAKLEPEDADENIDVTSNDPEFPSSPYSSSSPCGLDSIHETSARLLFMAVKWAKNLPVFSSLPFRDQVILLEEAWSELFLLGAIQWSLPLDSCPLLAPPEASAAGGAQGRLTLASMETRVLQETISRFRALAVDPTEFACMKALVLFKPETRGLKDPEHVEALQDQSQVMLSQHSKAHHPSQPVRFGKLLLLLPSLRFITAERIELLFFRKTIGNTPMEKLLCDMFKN
T2 sequence (P37231 whole entry): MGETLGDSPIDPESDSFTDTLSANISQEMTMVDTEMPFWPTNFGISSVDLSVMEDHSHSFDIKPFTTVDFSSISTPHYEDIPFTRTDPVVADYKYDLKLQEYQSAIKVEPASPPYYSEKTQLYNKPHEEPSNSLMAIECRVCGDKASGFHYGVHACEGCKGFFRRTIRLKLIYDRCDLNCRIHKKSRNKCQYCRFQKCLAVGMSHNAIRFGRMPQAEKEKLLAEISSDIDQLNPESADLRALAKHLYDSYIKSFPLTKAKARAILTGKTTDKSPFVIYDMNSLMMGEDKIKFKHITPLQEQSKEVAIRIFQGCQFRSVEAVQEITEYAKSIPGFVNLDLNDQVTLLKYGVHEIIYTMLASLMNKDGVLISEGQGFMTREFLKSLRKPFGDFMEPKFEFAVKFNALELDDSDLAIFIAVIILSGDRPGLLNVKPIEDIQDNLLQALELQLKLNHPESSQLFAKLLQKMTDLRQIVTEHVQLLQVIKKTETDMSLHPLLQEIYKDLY
T2 sequence (Q9Y618 whole entry): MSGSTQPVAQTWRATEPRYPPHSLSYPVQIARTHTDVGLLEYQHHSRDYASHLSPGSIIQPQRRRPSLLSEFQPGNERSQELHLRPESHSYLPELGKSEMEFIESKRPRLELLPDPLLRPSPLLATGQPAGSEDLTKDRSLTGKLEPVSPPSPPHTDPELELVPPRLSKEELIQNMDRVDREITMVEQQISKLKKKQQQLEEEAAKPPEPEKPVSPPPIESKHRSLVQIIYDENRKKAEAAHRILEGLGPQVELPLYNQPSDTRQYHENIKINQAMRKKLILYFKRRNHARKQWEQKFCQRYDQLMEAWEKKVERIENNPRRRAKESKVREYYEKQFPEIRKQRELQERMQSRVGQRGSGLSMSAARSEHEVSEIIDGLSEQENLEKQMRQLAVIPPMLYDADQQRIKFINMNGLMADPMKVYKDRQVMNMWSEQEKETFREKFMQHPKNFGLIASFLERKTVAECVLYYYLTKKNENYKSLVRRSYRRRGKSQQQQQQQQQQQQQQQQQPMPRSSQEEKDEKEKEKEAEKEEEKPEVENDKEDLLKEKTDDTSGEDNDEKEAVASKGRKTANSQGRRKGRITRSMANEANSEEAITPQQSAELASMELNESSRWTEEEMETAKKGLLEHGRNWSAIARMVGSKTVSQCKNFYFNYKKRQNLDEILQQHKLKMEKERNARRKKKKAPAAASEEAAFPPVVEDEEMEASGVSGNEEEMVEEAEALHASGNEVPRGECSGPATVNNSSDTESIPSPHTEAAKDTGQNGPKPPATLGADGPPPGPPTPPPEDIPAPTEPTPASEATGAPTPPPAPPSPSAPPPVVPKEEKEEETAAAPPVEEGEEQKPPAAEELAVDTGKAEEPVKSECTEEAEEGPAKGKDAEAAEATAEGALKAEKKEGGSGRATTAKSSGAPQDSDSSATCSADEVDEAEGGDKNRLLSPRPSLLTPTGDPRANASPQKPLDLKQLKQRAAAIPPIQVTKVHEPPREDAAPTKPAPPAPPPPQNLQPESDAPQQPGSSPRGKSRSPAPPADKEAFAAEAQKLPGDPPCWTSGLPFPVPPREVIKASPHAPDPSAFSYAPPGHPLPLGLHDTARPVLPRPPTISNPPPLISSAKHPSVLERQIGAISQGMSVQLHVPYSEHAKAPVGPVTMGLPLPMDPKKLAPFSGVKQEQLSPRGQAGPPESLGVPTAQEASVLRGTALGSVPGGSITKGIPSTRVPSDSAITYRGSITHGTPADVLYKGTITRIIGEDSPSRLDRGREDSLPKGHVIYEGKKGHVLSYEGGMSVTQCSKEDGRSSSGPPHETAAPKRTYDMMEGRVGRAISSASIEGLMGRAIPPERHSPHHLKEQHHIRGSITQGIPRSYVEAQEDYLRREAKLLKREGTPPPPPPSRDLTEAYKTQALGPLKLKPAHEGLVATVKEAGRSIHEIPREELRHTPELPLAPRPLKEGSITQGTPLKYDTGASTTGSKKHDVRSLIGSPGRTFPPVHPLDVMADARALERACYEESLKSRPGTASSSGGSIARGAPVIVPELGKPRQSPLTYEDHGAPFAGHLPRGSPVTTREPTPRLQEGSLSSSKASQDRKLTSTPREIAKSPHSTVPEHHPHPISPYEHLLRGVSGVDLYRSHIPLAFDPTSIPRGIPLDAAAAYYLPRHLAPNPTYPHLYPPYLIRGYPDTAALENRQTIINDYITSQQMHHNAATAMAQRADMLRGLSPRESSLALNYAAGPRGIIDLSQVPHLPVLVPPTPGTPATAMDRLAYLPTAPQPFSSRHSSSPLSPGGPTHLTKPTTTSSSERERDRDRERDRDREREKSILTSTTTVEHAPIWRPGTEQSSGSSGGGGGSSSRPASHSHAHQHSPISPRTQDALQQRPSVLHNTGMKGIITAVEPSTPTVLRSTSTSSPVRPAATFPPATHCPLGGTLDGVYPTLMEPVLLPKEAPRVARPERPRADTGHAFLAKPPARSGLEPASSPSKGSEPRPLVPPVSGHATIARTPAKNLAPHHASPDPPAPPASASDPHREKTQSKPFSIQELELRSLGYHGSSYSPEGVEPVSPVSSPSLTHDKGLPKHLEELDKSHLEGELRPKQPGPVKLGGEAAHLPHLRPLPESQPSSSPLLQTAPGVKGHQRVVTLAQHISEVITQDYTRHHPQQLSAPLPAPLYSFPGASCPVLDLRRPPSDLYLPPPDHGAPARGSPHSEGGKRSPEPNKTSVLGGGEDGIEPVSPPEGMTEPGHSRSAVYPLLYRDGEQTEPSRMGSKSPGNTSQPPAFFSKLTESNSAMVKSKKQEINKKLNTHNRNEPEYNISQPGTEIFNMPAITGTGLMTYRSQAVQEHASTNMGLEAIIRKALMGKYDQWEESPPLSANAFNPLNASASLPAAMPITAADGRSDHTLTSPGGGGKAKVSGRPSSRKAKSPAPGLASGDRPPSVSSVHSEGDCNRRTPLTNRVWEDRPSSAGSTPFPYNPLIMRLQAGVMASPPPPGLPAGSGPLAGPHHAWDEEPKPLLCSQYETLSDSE
Sequence of Genome polyprotein (Hepatitis C virus, UniProt Q2Q167) (Q2Q167 whole entry): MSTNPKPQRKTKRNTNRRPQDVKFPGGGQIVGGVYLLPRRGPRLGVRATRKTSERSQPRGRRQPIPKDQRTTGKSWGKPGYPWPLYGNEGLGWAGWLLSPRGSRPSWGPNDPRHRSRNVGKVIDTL
Sequence of Beta-lactamase (Salmonella choleraesuis (strain SC-B67), UniProt Q5J463) (Q5J463 whole entry): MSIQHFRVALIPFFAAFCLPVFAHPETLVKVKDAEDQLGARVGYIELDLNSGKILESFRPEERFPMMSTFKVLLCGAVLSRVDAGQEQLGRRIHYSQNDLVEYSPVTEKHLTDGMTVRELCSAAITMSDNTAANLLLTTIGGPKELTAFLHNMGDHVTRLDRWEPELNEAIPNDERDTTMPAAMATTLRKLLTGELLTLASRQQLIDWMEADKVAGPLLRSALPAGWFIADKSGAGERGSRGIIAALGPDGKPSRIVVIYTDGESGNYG
Sequence of 14-3-3 protein gamma (P61981 whole entry): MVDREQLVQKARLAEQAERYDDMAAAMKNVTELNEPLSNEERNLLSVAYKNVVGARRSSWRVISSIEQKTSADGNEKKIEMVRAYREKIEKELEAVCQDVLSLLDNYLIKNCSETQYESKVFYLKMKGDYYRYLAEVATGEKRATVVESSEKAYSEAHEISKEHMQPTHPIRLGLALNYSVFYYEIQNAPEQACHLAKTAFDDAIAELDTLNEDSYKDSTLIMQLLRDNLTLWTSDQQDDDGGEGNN

## Cc1ccc(-c2cc(C(=O)NCc3cnn(C)c3)c3cc(Br)ccc3n2)cc1
[1]
  IC50: 2.99 µM (active)
[2]
  IC50: 1.56 µM (active)

## Cc1cccc(NC(=O)C2CCCN(C(=O)Nc3ccccc3)C2)c1C (stereo unspecified)
[3]
  EC50: > 50 µM (not active)

## CCN(CC)c1ccc2c(-c3ccc(S(=O)(=O)O)cc3S(=O)(=O)[O-])c3ccc(=[N+](CC)CC)cc-3oc2c1
[4]
  CC50: 18.4 µM (active)
[5]
  EC50: 11.7 µM (active)
[6]
  IC50: > 39.8 µM (not active)
[7]
  EC50: 9.58 µM (active)
Genome polyprotein [8]
  IC50: > 49.8 µM (not active)
Beta-lactamase [9]
  IC50: > 59.6 µM (inactive)
Beta-lactamase [10]
  IC50: > 59.6 µM (inactive)
[11]
  AC50: > 20 µM (inactive)
[12]
  EC50: 11.4 µM (active)
[13]
  IC50: 1.02 µM (active)

## COc1cc2ncnc(Nc3cccc(Cl)c3)c2cc1OC [TYRPHOSTIN AG-1478]
Danio rerio
  IC50: 12.7 µM (not active)

## COc1cc(NCCCC(C)N)c2ncccc2c1 (stereo unspecified)
14-3-3 protein gamma
  IC50: > 50 µM (not active)
[14]
  EC50: 34.3 µM (active)
Bcl-2-like protein 10
  IC50: 8.47 µM (active)
Protein RecA
  EC50: 0.42 µM (active)
[15]
  IC50: 49.2 µM (inactive)
[16]
  IC50: > 20 µM (inactive)
Fibrinogen beta chain [17]
  IC50: > 83.3 µM (inactive)
Genome polyprotein [18]
  IC50: > 100 µM (active)
[19]
  AC50: 4.78 µM (active)
[20]
  EC50: 42.5 µM (active)
Fibrinogen beta chain [21]
  IC50: 54.4 µM (inactive)

## CCN(CCNC(=O)C1CCCN(S(=O)(=O)CC)C1)c1ccccc1 (stereo unspecified)
Ephrin type-A receptor 4
  IC50: > 100 µM (not active)

From ChEMBL document CHEMBL1201862, “PubChem BioAssay data set” (2004)
